Test results published in patent US20230021483A1, “[…] […] METHOD AND CLASSIFICATION OF PHARMACEUTICAL COMPONENTS BY USING TRANSCRIPTOMES” (National Institutes of Biomedical Innovation, Health and …, priority 2016, published 2023).

System: liver
Settings: mouse, in vivo, ip
Protocol: After 3 hours/6 hours, blood and liver were collected on day 1, day 2, day 3, and day 5. Hematoxylin and eosin staining was applied to the collected liver and histologically analyzed (FIG. 20).

## heptanoyl-γ-D-glutamyl-(L)-meso-diaminopimelyl-(D)-alanine [FK565]
  histological finding in liver (hematoxylin and eosin): liver damage
